Structures can show the parent of a compound that is named as a salt.
Assays:
WT iPSCs = assay: Cellular metabolism assay (OCR, ECAR); format: cell-based, mouse; conditions: for extracellular acidification rate (ECAR) / oxygen consumption rate (OCR): day 9 differentiated cells pre-treated overnight at screen concentration; for OCR/ECAR ratio after addition of CCCP: pre-treated cells (FIG. 7c)
Procedure: (§1) FIGS. 7a-7g depict that glycolytic switch inducers modulate the metabolic profile of WT and KO iPSCs. Measurement of (FIG. 7a) oxygen consumption rate (OCR) and (FIG. 7b) extracellular acidification rate (ECAR) in WT and KO iPSCs at day 10 of differentiation following compound pre-treatment for 16 h. Data are expressed as mean±s.d. (n=10 samples, with 3 measurements each) relative to DMSO-treated WT cells. (*P<0.001, student's t-test between compound-treated and DMSO ? treated cells of same type. **P<0.001, student's t-test between DMSO-treated WT and KO cells). Measurement of OCAR/ECAR ratios for drug-treated (FIG. 7c) WT and (FIG. 7d) KO iPSCs following treatment carbonyl cyanide m-chlorophenyl hydrazone (CCCP), at the time indicated (arrow). Antimycin, an electron transport chain inhibitor, was added to each well at the end of the assay to verify that mitochondrial function was intact in drug-treated cells. A schematic model of ATGL ? mediated lipid metabolism in shown for (FIG. 7e) WT cells, (FIG. 7f) KO cells, and (FIG. 7g) drug-treated KO cells.
(§2) We next investigated whether the top-scoring compounds with reported glycolytic switch properties could in fact modulate the OCR and ECAR of differentiated WT and KO iPSCs. We pre-treated day 9 differentiated cells overnight with mefloquine, vinpocetine, and perhexyline at their screen concentrations (Table 3) and measured the changes in OCR and ECAR. […] This is consistent with the increased adaptation to glucose in ATGL-KO cells.
(§3) To determine whether the glycolytic switch inducers work through common or distinct mechanisms, we next examined how the responses of ATGL-KO and WT cells to challenge with carbonyl cyanide m-chlorophenyl hydrazone (CCCP) differed upon pre-treatment with glycolytic switch inducers. CCCP is an uncoupler of the mitochondrial hydrogen gradient that induces maximal cellular oxidative respiration (Goldsby et al., 1963). […] This was due entirely to an increase in OCAR, as the ECAR levels remained relatively unchanged (data not shown).
(§4) ATGL-KO and WT iPSCs were differentiated as EBs to day 9, then collagenase-dissociated and re-plated onto gelatin-coated XF24 plates (Seahorse Bioscience, Andover, Mass.) at a density of 250,000 cells/well. Following an overnight incubation (12-16 hrs) in differentiation medium supplemented with drugs or DMSO, the cells were acclimated to atmospheric CO2 in drug-containing buffer-free medium (Wu, M. et al., 2007) for 1 hour at 37° C. Oxygen consumption rates (OCR) and extracellular acidification rates (ECAR) were measured on the Seahorse Extracellular Flux 24 Analyzer using previously established procedures (Gohil et al., 2010; Wu, M. et al., 2007) and normalized against cell number as assessed by the resazurin assay described above. In all wells, antimycin, an electron transport chain inhibitor, was added at the end of the assay to ascertain that mitochondrial function in the drug-treated cells had been intact and that the OCR and ECAR results were not due to direct mitochondrial toxicity effects from drug treatment.

ATGL-KO iPSCs [1] = assay: Cellular metabolism assay (OCR, ECAR); format: cell-based, mouse; conditions: for extracellular acidification rate (ECAR) / oxygen consumption rate (OCR): day 9 differentiated cells pre-treated overnight at screen concentration; for OCR/ECAR ratio after addition of CCCP: pre-treated cells (FIG. 7d)
Procedure: as §1, §2, §3, §4

ATGL-KO mice = assay: 18-week observer-blinded placebo-controlled treatment study; format: in vivo, mouse; conditions: for cardiac function (echocardiography): 14 weeks of age; for overall triglyceride content in the heart: 14 weeks old ATGL-KO mice (FIG. 8d)
Source text: FIGS. 8a-8f show graphs of the in vivo validation of the drug hit efficacy on ATGL-KO mice. (FIG. 8a) Kaplan-Meier survival plot of ATGL-KO mice treated with Mefloquine (N=15), Perhexyline (N=15), Vinpocetin low dose (N=15), Vinpocetin high dose (N=15), or water alone (N=15) (FIG. 8b) Contractile function of wild type mice treated with Mefloquine (Mef), Perhexyline (Per), Vinpocetin (Vin), and water (None) at 3 weeks of age before drug treatment (black) and at 18 weeks of age (white) after drug treatment. (FIG. 8c) Contractile function of ATGL-KO mice treated with Mef, Per, Vin, and water at 3 weeks of age before drug treatment (black) and at 10 (gray), and 14 (white) weeks of age after drug treatment. (FIG. 8d) Measurement of triglyceride content in hearts of 14 weeks old wild type (WT) and ATGL-KO (KO) mice after treatment with the indicated drugs. V (H)—vinpocetin high dose, V (L)—vinpocetin low dose. (FIG. 8e) Measurement of triglyceride content in the liver, lung, and kidney of WT mice (gray) and ATGL-KO mice treated with Per (red), Mef (green), V (H) (blue), V (L) (orange), or water (black). (FIG. 8f) Quantitative PCR analysis of metabolic gene expression in the hearts of 14 weeks old ATGL-KO mice treated with water (black), Per (red), and Mef (green) and in the hearts of age-matched WT mice (gray).
We designed an 18-week observer-blinded placebo-controlled study treating both wild type and ATGL-KO mice with mefloquine, perhexyline, and high and low doses of vinpocetin starting from 3 weeks after birth. We assess the survival of each animal throughout the entire treatment course. We also measured the cardiac function of each animal before treatment and at 10 and 14 weeks of age. […] The effect of these drugs on triglyceride content was observed variably in other tissues such as liver, lung, and kidney (FIG. 8e). While these drugs were able to elicit a similar reduction in triglyceride content, they appear to do so by recruiting genes involved in distinct pathways. (FIG. 8f)

ATGL-KO iPSCs [2] = assay: High throughput iPSC chemical screening, Oil Red O (ORO) lipid accumulation; format: cell-based, mouse; conditions: for Rank in normalized ORO score from screen: glycolytic switch compounds; for Z-score: normalized ORO level vs DMSO-treated cells, compound present during 7 days differentiation, 96-well, negative = decrease in lipid accumulation
NLSD-M human iPSCs = assay: TG content in differentiated human iPSCs; format: cell-based; conditions: differentiated human NLSD-M iPSCs (FIG. 9b)

Compound | extracellular acidification rate (ECAR) (WT iPSCs) | oxygen consumption rate (OCR) (WT iPSCs) | OCR/ECAR ratio after addition of CCCP (WT iPSCs) | extracellular acidification rate (ECAR) (ATGL-KO iPSCs [1]) | oxygen consumption rate (OCR) (ATGL-KO iPSCs [1]) | OCR/ECAR ratio after addition of CCCP (ATGL-KO iPSCs [1]) | cardiac function (echocardiography) (ATGL-KO mice) | overall triglyceride content in the heart (ATGL-KO mice) | Rank in normalized ORO score from screen (ATGL-KO iPSCs [2]) | Z-score (ATGL-KO iPSCs [2]) | intracellular lipid content (TG content) (NLSD-M human iPSCs) | impact on OCR in KO cells compared to WT cells (ATGL-KO iPSCs [1])
OC(c1cc(C(F)(F)F)nc2c(C(F)(F)F)cccc12)C1CCCCN1 (stereo not shown) [Mefloquine hydrochloride] | increased ECAR | decreased OCR | increased the ratio of OCAR/ECAR | increased ECAR | decreased OCR | increased the ratio of OCAR/ECAR | echocardiographic improvements in cardiac function | reduction in the overall triglyceride content in the heart | 3 | −2.3573 | significantly reduce intracellular lipid content | 
C1CCC(C(CC2CCCCN2)C2CCCCC2)CC1 (stereo not shown) [Perhexiline maleate] | increased ECAR | decreased OCR | no increase in the OCR/ECAR ratio | increased ECAR | decreased OCR | no increase in the OCR/ECAR ratio | echocardiographic improvements in cardiac function | reduction in the overall triglyceride content in the heart | 4 | −2.3117 |  | smaller impact on OCR in KO cells compared to WT cells
CCOC(=O)C1=C[C@]2(CC)CCCN3CCc4c(n1c1ccccc41)[C@@H]32 [Vinpocetine] | increased ECAR | decreased OCR | increased the ratio of OCAR/ECAR | increased ECAR | decreased OCR | increased the ratio of OCAR/ECAR |  | reduction in the overall triglyceride content in the heart | 2 | −2.4105 |  | 

From patent US9393221B2, “Methods and compounds for reducing intracellular lipid storage” (THE GENERAL HOSPITAL CORPORATION, priority 2011, dated 2016)
